Measured values published in PubChem BioAssay AID2060614 (Molecular Pharmacology Branch, DTP, NCI, 2025).
One block for each compound: values may come before it.

Tested on: 598228-144-R-J1-PDC complex spheroids, viability
Experiment: Anticancer human tumor 598228-144-R-J1-PDC patient-derived serous endometrial adenocarcinoma cell line growth inhibition [CLK]
Settings: for IC50: curve of first compound; for viability, T/C: stronger effect = lower value
Summary of the method: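 Patient-derived tumor cells grown as complex spheroids with HUVEC endothelial cells and mesenchymal stem cells, treated with drug combinations. Concentrations descend in half-log steps from near clinical Cmax, or from 10 microM if Cmax unknown.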

[1] = second compound 0.0316 µM, first compound 0.0316 µM
[2] = second compound 0.0316 µM, first compound 0.1 µM
[3] = second compound 0.0316 µM, first compound 0.316 µM
[4] = second compound 0.0316 µM, first compound 1 µM
[5] = second compound 0.0316 µM, first compound 3.16 µM
[6] = second compound 0.0316 µM, first compound 10 µM
[7] = second compound 0.1 µM, first compound 0.0316 µM
[8] = second compound 0.1 µM, first compound 0.1 µM
[9] = second compound 0.1 µM, first compound 0.316 µM
[10] = second compound 0.1 µM, first compound 1 µM
[11] = second compound 0.1 µM, first compound 3.16 µM
[12] = second compound 0.1 µM, first compound 10 µM
[13] = second compound 0.316 µM, first compound 0.0316 µM
[14] = second compound 0.316 µM, first compound 0.1 µM
[15] = second compound 0.316 µM, first compound 0.316 µM
[16] = second compound 0.316 µM, first compound 1 µM
[17] = second compound 0.316 µM, first compound 3.16 µM
[18] = second compound 0.316 µM, first compound 10 µM
[19] = second compound 1 µM, first compound 0.0316 µM
[20] = second compound 1 µM, first compound 0.1 µM
[21] = second compound 1 µM, first compound 0.316 µM
[22] = second compound 1 µM, first compound 1 µM
[23] = second compound 1 µM, first compound 3.16 µM
[24] = second compound 1 µM, first compound 10 µM
[25] = second compound 3.16 µM, first compound 0.0316 µM
[26] = second compound 3.16 µM, first compound 0.1 µM
[27] = second compound 3.16 µM, first compound 0.316 µM
[28] = second compound 3.16 µM, first compound 1 µM
[29] = second compound 3.16 µM, first compound 3.16 µM
[30] = second compound 3.16 µM, first compound 10 µM
[31] = second compound 10 µM, first compound 0.0316 µM
[32] = second compound 10 µM, first compound 0.1 µM
[33] = second compound 10 µM, first compound 0.316 µM
[34] = second compound 10 µM, first compound 1 µM
[35] = second compound 10 µM, first compound 3.16 µM
[36] = second compound 10 µM, first compound 10 µM
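Note: spheroids exposed to compounds for seven days before readout.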
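Throughout, for viability, T/C: 100% = DMSO vehicle control wells.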

IC50 (second compound 0.0316 µM): > 10 µM | IC50 (second compound 0.1 µM): > 10 µM | IC50 (second compound 0.316 µM): > 10 µM | IC50 (second compound 1 µM): > 10 µM | IC50 (second compound 3.16 µM): > 10 µM | IC50 (second compound 10 µM): > 10 µM
SMILES: C=CC(=O)N1CCN(c2nc(=O)n(-c3c(C)ccnc3C(C)C)c3nc(-c4c(O)cccc4F)c(F)cc23)C(C)C1 (stereo unspecified) + CNC(=O)c1ccc(Nc2nc(OC3CCCC3)c3c(-c4ccc5nc(C)oc5c4)c[nH]c3n2)c(OC)c1
viability, T/C [1]: 97.9% | viability, T/C [2]: 110% | viability, T/C [3]: 101% | viability, T/C [4]: 123% | viability, T/C [5]: 135% | viability, T/C [6]: 111% | viability, T/C [7]: 100% | viability, T/C [8]: 111% | viability, T/C [9]: 117% | viability, T/C [10]: 114% | viability, T/C [11]: 127% | viability, T/C [12]: 118% | viability, T/C [13]: 120% | viability, T/C [14]: 100% | viability, T/C [15]: 110% | viability, T/C [16]: 127% | viability, T/C [17]: 120% | viability, T/C [18]: 111% | viability, T/C [19]: 102% | viability, T/C [20]: 96.7% | viability, T/C [21]: 109% | viability, T/C [22]: 137% | viability, T/C [23]: 117% | viability, T/C [24]: 99.3% | viability, T/C [25]: 99.8% | viability, T/C [26]: 86.1% | viability, T/C [27]: 97.5% | viability, T/C [28]: 109% | viability, T/C [29]: 116% | viability, T/C [30]: 85.3% | viability, T/C [31]: 87.6% | viability, T/C [32]: 88.7% | viability, T/C [33]: 96.4% | viability, T/C [34]: 104% | viability, T/C [35]: 101% | viability, T/C [36]: 77.3%

IC50 (second compound 0.0316 µM): 9.99 µM | IC50 (second compound 0.1 µM): > 10 µM | IC50 (second compound 0.316 µM): 9.64 µM | IC50 (second compound 1 µM): > 10 µM | IC50 (second compound 3.16 µM): > 10 µM | IC50 (second compound 10 µM): 9.06 µM
SMILES: CCCS(=O)(=O)Nc1ccc(F)c(C(=O)c2c[nH]c3ncc(-c4ccc(Cl)cc4)cc23)c1F + CNC(=O)c1ccc(Nc2nc(OC3CCCC3)c3c(-c4ccc5nc(C)oc5c4)c[nH]c3n2)c(OC)c1
viability, T/C [1]: 117% | viability, T/C [2]: 104% | viability, T/C [3]: 113% | viability, T/C [4]: 105% | viability, T/C [5]: 93.5% | viability, T/C [6]: 49.5% | viability, T/C [7]: 102% | viability, T/C [8]: 101% | viability, T/C [9]: 102% | viability, T/C [10]: 111% | viability, T/C [11]: 115% | viability, T/C [12]: 51.6% | viability, T/C [13]: 99.4% | viability, T/C [14]: 105% | viability, T/C [15]: 87.2% | viability, T/C [16]: 100% | viability, T/C [17]: 83.5% | viability, T/C [18]: 48.6% | viability, T/C [19]: 96.5% | viability, T/C [20]: 104% | viability, T/C [21]: 94.8% | viability, T/C [22]: 99.3% | viability, T/C [23]: 88.4% | viability, T/C [24]: 57.1% | viability, T/C [25]: 86.7% | viability, T/C [26]: 83.9% | viability, T/C [27]: 91.7% | viability, T/C [28]: 102% | viability, T/C [29]: 83.3% | viability, T/C [30]: 55% | viability, T/C [31]: 89% | viability, T/C [32]: 82.5% | viability, T/C [33]: 92.5% | viability, T/C [34]: 99.6% | viability, T/C [35]: 67.5% | viability, T/C [36]: 48.4%

IC50 (second compound 0.0316 µM): 3.22 µM | IC50 (second compound 0.1 µM): 2.59 µM | IC50 (second compound 0.316 µM): 1.13 µM | IC50 (second compound 1 µM): 2.72 µM | IC50 (second compound 3.16 µM): 2.01 µM | IC50 (second compound 10 µM): 2.81 µM
SMILES: COC1C=CCC(C)C(C)S(=O)(=O)NC(=O)c2ccc3c(c2)N(CC2CCC21)CC1(CCCc2cc(Cl)ccc21)CO3 (stereo unspecified) + CNC(=O)c1ccc(Nc2nc(OC3CCCC3)c3c(-c4ccc5nc(C)oc5c4)c[nH]c3n2)c(OC)c1
viability, T/C [1]: 111% | viability, T/C [2]: 108% | viability, T/C [3]: 81.7% | viability, T/C [4]: 69.3% | viability, T/C [5]: 54.9% | viability, T/C [6]: 25.3% | viability, T/C [7]: 105% | viability, T/C [8]: 96.9% | viability, T/C [9]: 61.7% | viability, T/C [10]: 70.6% | viability, T/C [11]: 59.6% | viability, T/C [12]: 22.9% | viability, T/C [13]: 102% | viability, T/C [14]: 91.1% | viability, T/C [15]: 60.5% | viability, T/C [16]: 53.9% | viability, T/C [17]: 42.5% | viability, T/C [18]: 31.5% | viability, T/C [19]: 99% | viability, T/C [20]: 82.8% | viability, T/C [21]: 65.9% | viability, T/C [22]: 57.8% | viability, T/C [23]: 55.5% | viability, T/C [24]: 37.2% | viability, T/C [25]: 92.4% | viability, T/C [26]: 78.8% | viability, T/C [27]: 67.3% | viability, T/C [28]: 54.9% | viability, T/C [29]: 55.3% | viability, T/C [30]: 25.1% | viability, T/C [31]: 86.5% | viability, T/C [32]: 83.8% | viability, T/C [33]: 67.2% | viability, T/C [34]: 51.9% | viability, T/C [35]: 58.3% | viability, T/C [36]: 35.4%
